In brackets after ≈: the same amount, converted by molar mass. Like-named read-outs stand apart in the source and are kept apart here.

The values that follow come from PMC9687610, “Adenosine-Mimicking Derivatives of 3-Aminopyrazine-2-Carboxamide: Towards Inhibitors of Prolyl-tRNA Synthetase with Antimycobacterial Activity” (Biomolecules, 2022).

Data set [1] relates to Mycobacterium tuberculosis H37Ra ITM-M006710 (ATCC 9431). Nature of the data set: Microplate Alamar Blue Assay (MABA), Mtb H37Ra. The data set is classed as cell-based. The conditions noted are these: Mycobacterium tuberculosis, 120 h, pH 6.6, MABA, Middlebrook 7H9 broth pH 6.6, resazurin after 120 h; read-out: Mtb H37Ra MIC.
The subject of data set [2] is Mycobacterium smegmatis DSM 43465 (ATCC 607). Kind of data set: Microplate Alamar Blue Assay (MABA), M. smegmatis. The data set is classed as cell-based. The following applies: Mycolicibacterium smegmatis; MABA, resazurin after 48 h; read-out: M. smegmatis MIC. (Resazurin is reduced to fluorescent resorufin, in cell work by metabolically active cells.)
In data set [3] the test system is M. aurum DSM 43999 (ATCC 23366). Nature of the data set: Microplate Alamar Blue Assay (MABA), M. aurum. The data set is classed as cell-based. The following applies: Mycolicibacterium aurum; MABA, resazurin after 72 h; read-out: M. aurum MIC.
For data set [4], the system named is Staphylococcus aureus subsp. aureus CCM 4223 (ATCC 29213). Kind of data set: Antibacterial microdilution broth (EUCAST), SA. The format is cell-based. The conditions noted are these: Staphylococcus aureus; read after 24 h; read-out: SA MIC. In general terms: Dilution methods test growth across graded concentrations, often in twofold steps.
Data set [5] deals with Staphylococcus aureus subsp. aureus methicillin-resistant (MRSA) CCM 4750 (ATCC 43300). Nature of the data set: Antibacterial microdilution broth (EUCAST), MRSA. The data set is classed as cell-based. The conditions noted are these: Staphylococcus aureus; read after 24 h; read-out: MRSA MIC.
Data set [6] has as its system Staphylococcus epidermidis CCM 4418 (ATCC 12228). Kind of data set: Antibacterial microdilution broth (EUCAST), SE. The following applies: read after 24 h, read-out: SE MIC. The format is cell-based.
The test system of data set [7] is Enterococcus faecalis CCM 4224 (ATCC 29212). Kind of data set: Antibacterial microdilution broth (EUCAST), EF. The format is cell-based. The following applies: Enterococcus faecalis; read after 24 h; read-out: EF MIC.
Data set [8] concerns Escherichia coli CCM 3954 (ATCC 25922). Nature of the data set: Antibacterial microdilution broth (EUCAST), EC. The data set is classed as cell-based. The conditions noted are these: Escherichia coli; read after 24 h; read-out: EC MIC.
Data set [9] has as its system Acinetobacter baumannii DSM 30007 (ATCC 19606). Kind of data set: Antibacterial microdilution broth (EUCAST), ACI. The format is cell-based. The following applies: Acinetobacter baumannii; read after 24 h; read-out: ACI MIC.
The subject of data set [10] is Pseudomonas aeruginosa CCM 3955 (ATCC 27853). Nature of the data set: Antibacterial microdilution broth (EUCAST), PA. The conditions noted are these: Pseudomonas aeruginosa; read after 24 h; read-out: PA MIC. The format is cell-based.
The subject of data set [11] is Candida albicans CCM 8320 (ATCC 24433). Nature of the data set: Antifungal microdilution broth (EUCAST), CA. The format is cell-based. The conditions noted are these: Candida albicans; read after 24 h; read-out: CA MIC.
Data set [12] relates to Candida krusei CCM 8271 (ATCC 6258). Nature of the data set: Antifungal microdilution broth (EUCAST), CK. The format is cell-based. The conditions noted are these: Pichia kudriavzevii; read after 24 h; read-out: CK MIC.
The subject of data set [13] is Candida parapsilosis CCM 8260 (ATCC 22019). Nature of the data set: Antifungal microdilution broth (EUCAST), CP. The following applies: Lodderomyces parapsilosis; read after 24 h; read-out: CP MIC. The format is cell-based.
In data set [14] the test system is Candida tropicalis CCM 8264 (ATCC 750). Kind of data set: Antifungal microdilution broth (EUCAST), CT. The format is cell-based. The conditions noted are these: Candida tropicalis; read after 24 h; read-out: CT MIC.
The test system of data set [15] is Aspergillus fumigatus ATCC 204305. Kind of data set: Antifungal microdilution broth (EUCAST), AF. The data set is classed as cell-based. The following applies: Aspergillus fumigatus, ATCC204305; read after 24 h; read-out: AF MIC.
Data set [16] concerns Aspergillus flavus CCM 8363. Nature of the data set: Antifungal microdilution broth (EUCAST), AFla. The format is cell-based. The following applies: Aspergillus flavus, CCM8363; read after 24 h; read-out: AFla MIC.
Data set [17] relates to Lichtheimia corymbifera CCM 8077. Kind of data set: Antifungal microdilution broth (EUCAST), LC. The data set is classed as cell-based. The following applies: Lichtheimia corymbifera, CCM8077; read after 24 h; read-out: LC MIC.
Data set [18] deals with Trichophyton interdigitale CCM 8377 (ATCC 9533). Nature of the data set: Antifungal microdilution broth (EUCAST), TI. The conditions noted are these: Trichophyton interdigitale, 72 h, read-out: TI MIC. The data set is classed as cell-based.
In data set [19] the test system is HepG2 human hepatocellular carcinoma cells. Kind of data set: In vitro HepG2 cytotoxicity (CellTiter 96). The following applies: * limit = highest evaluated concentration (precipitation in medium), ** over the 1000 µM limit.
Data set [20] has as its system Klebsiella pneumoniae CCM 4415 (ATCC 10031). Kind of data set: Antibacterial microdilution broth (EUCAST), KP. The conditions noted are these: read after 24 h.
Where [21] appears, read: Homo sapiens, HepG2, 24 h, read-out: HepG2 IC50, 24 h incubation.

A word on the MIC: it is the lowest concentration found to suppress growth. What is called melting point is the temperature, or range, at which the solid turns liquid. A word on the IC50: it is the midpoint of a concentration-inhibition curve. Take `CNC(=O)c1nccnc1NC(=O)c1ccc(C)cc1` [Compound 33]: the melting point was in the range of 178.4 to 179.5 °C. The MIC in [1] came out at 250 µg/mL (≈ 925 µM). In data set [2], the MIC is not below 500 µg/mL. The MIC in [3] turned out to be 125 µg/mL (≈ 462 µM). For the same compound, the MIC in [4] was more than 500 µM. Moreover, the MIC in data set [5] is more than 500 µM. In addition, the MIC in data set [6] was more than 500 µM. The MIC in [7] is more than 500 µM. Also, the MIC in data set [8] is more than 500 µM. Moreover, the MIC in data set [9] is more than 500 µM. Further, the MIC in [10] was more than 500 µM. Also, the MIC in data set [11] was more than 500 µM. Besides, the MIC in [12] is more than 500 µM. The MIC in data set [13] is more than 500 µM. In addition, the MIC in [14] is more than 500 µM. Also, in data set [15], the MIC was more than 500 µM. Besides, the MIC in data set [16] is more than 500 µM. Besides, the MIC in data set [17] is more than 500 µM. Moreover, the MIC in data set [18] was more than 500 µM. The IC50 in [19] (setting [21]) came to 765 µM. Besides, in data set [19] (read-out: HepG2 IC50, 24 h incubation), the IC50 is 764 µM. Moreover, the “KP MIC” value in data set [20] is given as more than 500 µM.

Consider `CCCCCC(=O)Nc1nccnc1C(N)=O` [Compound 30], for which the melting point lay in the range of 138.4 to 139 °C. The MIC in data set [1] was not below 500 µg/mL. In addition, the MIC in data set [2] was not below 500 µg/mL. The MIC in [3] was not below 250 µg/mL. Also, in data set [4], the MIC was more than 500 µM. The MIC in [5] is more than 500 µM. Further, the MIC in data set [6] is more than 500 µM. In [7], the MIC was more than 500 µM. Besides, the MIC in data set [8] was more than 500 µM. In addition, the minimum inhibitory concentration (MIC) in [9] was more than 500 µM. The MIC in data set [10] was more than 500 µM. Also, the MIC in [11] is more than 500 µM. Besides, the MIC in [12] is more than 500 µM. The MIC in [13] was more than 500 µM. Also, the MIC in data set [14] was more than 500 µM. Also, the MIC in [15] is more than 500 µM. Further, the MIC in data set [16] is more than 500 µM. Besides, in [17], the MIC is more than 500 µM. For the same compound, the MIC in data set [18] is more than 500 µM. Besides, the IC50 in data set [19] (setting [21]) was 560 µM. In addition, the “KP MIC” value in data set [20] is recorded as more than 500 µM.

For `CNC(=O)c1nccnc1NC(=O)c1ccc(Cl)cc1` [Compound 34], the melting point was in the range of 204.2 to 205.1 °C. The MIC in [1] was not below 500 µg/mL. Also, the MIC in data set [2] is not below 500 µg/mL. In addition, in data set [3], the MIC is not below 500 µg/mL. For the same compound, the MIC in [4] was more than 125 µM. For the same compound, the MIC in data set [5] is more than 125 µM. In data set [6], the MIC was more than 125 µM. The MIC in [7] is more than 125 µM. For the same compound, the MIC in [8] was more than 125 µM. In data set [9], the MIC was more than 125 µM. In data set [10], the MIC is more than 125 µM. Further, the MIC in data set [11] was more than 125 µM. For the same compound, in data set [12], the MIC was more than 125 µM. For the same compound, in data set [13], the MIC is more than 125 µM. Moreover, the minimum inhibitory concentration (MIC) in data set [14] was more than 125 µM. Further, in [15], the MIC is more than 125 µM. Also, the MIC in [16] is more than 125 µM. The MIC in data set [17] is more than 125 µM. The MIC in data set [18] is more than 125 µM. Further, in data set [19] (setting [21]), the IC50 is more than 100 µM. For the same compound, the “KP MIC” value in [20] was more than 125 µM.

`O=c1[nH]c(-c2ccc(Br)cc2)nc2nccnc12` [Compound 43]: the melting point was 315.4 to 317.4 °C. Also, in [1], the MIC was 31.2 µg/mL (≈ 103 µM). In data set [2], the MIC is not below 500 µg/mL. Also, the MIC in data set [3] was not below 500 µg/mL. For the same compound, the MIC in data set [4] is more than 125 µM. Moreover, the MIC in data set [5] was more than 125 µM. Moreover, the MIC in data set [6] is more than 125 µM. Moreover, the MIC in data set [7] was more than 125 µM. Also, in [8], the MIC was more than 125 µM. For the same compound, the MIC in [9] is more than 125 µM. Also, in [10], the MIC was more than 125 µM. In addition, the MIC in [11] was more than 125 µM. Besides, the MIC in data set [12] was more than 125 µM. The MIC in data set [13] was more than 125 µM. Besides, the MIC in data set [14] was more than 125 µM. The MIC in data set [15] was more than 125 µM. In addition, the MIC in [16] was more than 125 µM. Besides, the MIC in data set [17] is more than 125 µM. Moreover, in [18], the MIC is more than 125 µM. Also, in [19] (setting [21]), the IC50 is more than 250 µM. Besides, in data set [20], the “KP MIC” value is on record as more than 125 µM.
